Data published in patent US4642332A, “Effective hormonal peptides: D-3-Pal^6 -LHRH” (The Board of Regents, The University of Texas System, priority 1985, dated 1987).

What was measured:
[1] = system: pituitary cells from 21 day old rats; assay: In vitro pituitary incubate assay (release of LH and FSH); format: cell-based, rat; settings: for FSH released into medium (ng/ml) ± SEM / LH ng/ml medium ± SEM: Table IV, mean of 9
Procedure: The data in Tables IV and V are from the in vitro assay of the peptides with the pituitary incubate. This assay measures the release of LH and FSH in an in vitro system with pituitary cells from 21 day old rats. See, Bowers, C. Y. et al. on the inhibitory effects of leutinizing hormone releasing hormone analogs. Endocrinology, 106: 674 (1980).
The abbreviations are as follows: sc-subcutaneous, SEM-standard error of the mean; NS-not significant; ng-nanogram, and ml-milliliter. The p value represents the population coefficient .rho.(rho) which signifies whether a sample coefficient is significant or a chance deviation from zero.

21 day old female rats = assay: In vivo assay in rats for release of LH and FSH; set-up: species or system rat; settings: for Serum FSH ng/ml SEM / Serum LH ng/ml SEM: Table IX, blood sample at ±60 minutes; for Serum FSH ng/ml SEM / Serum LH ng/ml SEM / FSH ng/ml Serum ± SEM at +120 min / LH ng/ml Serum ± SEM at +120 min: mean of 6; for FSH ng/ml Serum ± SEM at +120 min / LH ng/ml Serum ± SEM at +120 min: Table X; for +2 hrs LH ± SEM ng/ml serum / FSH ± SEM ng/ml serum (+2 hrs) / +3 hrs LH ± SEM ng/ml serum / FSH ± SEM ng/ml serum (+3 hrs): Table XI, mean 5-6
Procedure: In vivo rat assay performed by a modification of the method of Bowers, C. Y. et al. Endocrinology, 106, 674 (1980). 21 day old female rats were injected sc with saline or peptide. Blood samples for the RIAs of LH and FSH were collected at +15, +60, +120, or +180 minutes. (Tables VI-XI).

[2] = at 0.1 ng, statement on Table IV
[3] = Table VI, 1.75 ng/rat sc, mean of 9
[4] = Table VI, 5 ng/rat sc, mean of 9
[5] = Table VI, 15 ng/rat sc, mean of 9
[6] = Table VI, 50 ng/rat sc, mean of 9
[7] = Table VIII first section (time not given), 15 ng/rat sc, mean of 5-6
[8] = Table VIII first section (time not given), 150 ng/rat sc, mean of 5-6
[9] = Table VIII, ±60 min after injection, 15 ng/rat sc, mean of 5-6
[10] = Table VIII, ±60 min after injection, 150 ng/rat sc, mean of 5-6

Question: For `CC(C)C[C@H](NC(=O)[C@@H](Cc1cccnc1)NC(=O)[C@H](Cc1ccc(O)cc1)NC(=O)[C@H](CO)NC(=O)[C@H](Cc1c[nH]c2ccccc12)NC(=O)[C@H](Cc1c[nH]cn1)NC(=O)[C@@H]1CCC(=O)N1)C(=O)N[C@@H](CCCNC(=N)N)C(=O)N1CCC[C@H]1C(=O)NCC(N)=O` [D-Pal^6 -LHRH, pyroGlu-His-Trp-Ser-Tyr-D-3-Pal-Leu-Arg-Pro-GlyNH2], which “FSH released into medium (ng/ml) ± SEM” value ([1]; dosage 0.03 ng/ml medium) is on record?
Answer: The value was 1062 ± 394.

Question: What about the “LH ng/ml medium ± SEM” value ([1]; dosage 0.03 ng/ml medium) of the same compound?
Answer: Its value is 73 ± 10 ng/mL.

Question: What about the “FSH released into medium (ng/ml) ± SEM” value ([1]; dosage 0.1 ng/ml medium) of the same compound?
Answer: Its value is 3109 ± 486.

Question: And the “LH ng/ml medium ± SEM” value ([1]; dosage 0.1 ng/ml medium)?
Answer: The value was 345 ± 72 ng/mL.

Question: What about the “FSH released into medium (ng/ml) ± SEM” value ([1]; dosage 0.3 ng/ml medium) of the same compound?
Answer: The value was 5126 ± 967.

Question: And the “LH ng/ml medium ± SEM” value ([1]; dosage 0.3 ng/ml medium)?
Answer: The value was 811 ± 182 ng/mL.

Question: And the “FSH released into medium (ng/ml) ± SEM” value ([1]; dosage 1.0 ng/ml medium)?
Answer: Its value is 9637 ± 1490.

Question: And the “LH ng/ml medium ± SEM” value ([1]; dosage 1.0 ng/ml medium)?
Answer: The value was 1439 ± 233 ng/mL.

Question: And the “activity for the release of LH, D-Pal^6 -LHRH compared with D-Qal^6 -LHRH” value [1, 2]?
Answer: The value was “essentially equivalent”.

Question: What about the “release of FSH, D-Pal^6 -LHRH compared with D-Qal^6 -LHRH” value [1, 2] of the same compound?
Answer: Its value is “same essential equivalents”.

Question: What about the “potency, D-Pal^6 -LHRH compared with D-Trp^6 -LHRH” value ([1]; inferred from equivalence with D-Qal^6 -LHRH) of the same compound?
Answer: Its value is “essentially equipotent”.

Question: What about the “Serum FSH ng/ml SEM” value (21 day old female rats; 50 ng/rat sc) of the same compound?
Answer: The value was 3099 ± 361 ng/mL.

Question: And the “Serum LH ng/ml SEM” value (21 day old female rats; 50 ng/rat sc)?
Answer: The value was 120 ± 16 ng/mL.

Question: What about the “Serum FSH ng/ml SEM” value (21 day old female rats; 150 ng/rat sc) of the same compound?
Answer: Its value is 3064 ± 677 ng/mL.

Question: What about the “Serum LH ng/ml SEM” value (21 day old female rats; 150 ng/rat sc) of the same compound?
Answer: Its value is 122 ± 19 ng/mL.

Question: What about the “Serum FFSH ng/ml ± SEM” value (21 day old female rats; [3]) of the same compound?
Answer: The value was 471 ± 128 ng/mL.

Question: What about the “Serum LH ng/ml ± SEM” value (21 day old female rats; [3]) of the same compound?
Answer: The value was 1.5 ± 0.3 ng/mL.

Question: And the “Serum FFSH ng/ml ± SEM” value (21 day old female rats; [4])?
Answer: The value was 738 ± 71 ng/mL.

Question: And the “Serum LH ng/ml ± SEM” value (21 day old female rats; [4])?
Answer: Its value is 7 ± 1 ng/mL.

Question: What about the “Serum FFSH ng/ml ± SEM” value (21 day old female rats; [5]) of the same compound?
Answer: The value was 1270 ± 140 ng/mL.

Question: What about the “Serum LH ng/ml ± SEM” value (21 day old female rats; [5]) of the same compound?
Answer: Its value is 43 ± 7 ng/mL.

Question: What about the “Serum FFSH ng/ml ± SEM” value (21 day old female rats; [6]) of the same compound?
Answer: Its value is 2267 ± 342 ng/mL.

Question: And the “Serum LH ng/ml ± SEM” value (21 day old female rats; [6])?
Answer: The value was 103 ± 8 ng/mL.

Question: What about the “Serum FSH ng/ml ± SEM” value (21 day old female rats; [7]) of the same compound?
Answer: Its value is 1711 ± 644 ng/mL.

Question: What about the “Serum LH ng/ml ± SEM” value (21 day old female rats; [7]) of the same compound?
Answer: The value was 36 ± 9 ng/mL.

Question: And the “Serum FSH ng/ml ± SEM” value (21 day old female rats; [8])?
Answer: The value was 1591 ± 588 ng/mL.

Question: And the “Serum LH ng/ml ± SEM” value (21 day old female rats; [8])?
Answer: Its value is 111 ± 16 ng/mL.

Question: And the “Serum FSH ng/ml ± SEM” value (21 day old female rats; [9])?
Answer: The value was 1992 ± 379 ng/mL.

Question: What about the “Serum LH ng/ml ± SEM” value (21 day old female rats; [9]) of the same compound?
Answer: The value was 81.0 ± 17 ng/mL.

Question: And the “Serum FSH ng/ml ± SEM” value (21 day old female rats; [10])?
Answer: The value was 6432 ± 2216 ng/mL.

Question: And the “Serum LH ng/ml ± SEM” value (21 day old female rats; [10])?
Answer: The value was 106.0 ± 3 ng/mL.

Question: What about the “FSH ng/ml Serum ± SEM at +120 min” value (21 day old female rats; 50 ng/rat sc) of the same compound?
Answer: Its value is 3251 ± 485 ng/mL.

Question: What about the “LH ng/ml Serum ± SEM at +120 min” value (21 day old female rats; 50 ng/rat sc) of the same compound?
Answer: Its value is 111 ± 26 ng/mL.

Question: What about the “FSH ng/ml Serum ± SEM at +120 min” value (21 day old female rats; 150 ng/rat sc) of the same compound?
Answer: The value was 5293 ± 686 ng/mL.

Question: And the “LH ng/ml Serum ± SEM at +120 min” value (21 day old female rats; 150 ng/rat sc)?
Answer: Its value is 216 ± 46 ng/mL.

Question: What about the “+2 hrs LH ± SEM ng/ml serum” value (21 day old female rats; 50 ng sc) of the same compound?
Answer: Its value is 108 ± 17 ng/mL.

Question: What about the “FSH ± SEM ng/ml serum (+2 hrs)” value (21 day old female rats; 50 ng sc) of the same compound?
Answer: Its value is 1727 ± 222 ng/mL.

Question: What about the “+3 hrs LH ± SEM ng/ml serum” value (21 day old female rats; 50 ng sc) of the same compound?
Answer: Its value is 20 ± 2.3 ng/mL.

Question: And the “FSH ± SEM ng/ml serum (+3 hrs)” value (21 day old female rats; 50 ng sc)?
Answer: The value was 1312 ± 163 ng/mL.

Question: What about the “+2 hrs LH ± SEM ng/ml serum” value (21 day old female rats; 150 ng sc) of the same compound?
Answer: The value was 144 ± 27 ng/mL.

Question: What about the “FSH ± SEM ng/ml serum (+2 hrs)” value (21 day old female rats; 150 ng sc) of the same compound?
Answer: The value was 2362 ± 293 ng/mL.

Question: And the “+3 hrs LH ± SEM ng/ml serum” value (21 day old female rats; 150 ng sc)?
Answer: The value was 38 ± 6.3 ng/mL.

Question: And the “FSH ± SEM ng/ml serum (+3 hrs)” value (21 day old female rats; 150 ng sc)?
Answer: The value was 1617 ± 143 ng/mL.

Question: What about the “release of LH (in words)” value (21 day old female rats; dosage of 5 ng) of the same compound?
Answer: Its value is “significantly released LH”.

Question: And the FSH released (21 day old female rats; dosage of 15 ng)?
Answer: Its FSH released is 1270 ± 140 ng.

Question: What about the “LH released relative to LHRH” value (21 day old female rats; dosage of 50 ng, corrected for the level of LH before addition of the peptides) of the same compound?
Answer: Its value is roughly 50 times.

Question: And the “potency compared with LHRH when tested biologically” value (21 day old female rats; summary statement, test not specified)?
Answer: The value was “significantly more potent than LHRH itself”.

Question: What does the source list for `CCNC(=O)[C@@H]1CCCN1C(=O)[C@H](CCCNC(=N)N)NC(=O)[C@H](CC(C)C)NC(=O)[C@@H](Cc1c[nH]c2ccccc12)NC(=O)[C@H](Cc1ccc(O)cc1)NC(=O)[C@H](CO)NC(=O)[C@H](Cc1c[nH]c2ccccc12)NC(=O)[C@H](Cc1c[nH]cn1)NC(=O)[C@@H]1CCC(=O)N1` [D-Trp^6 Pro^9 Net--LHRH, pyroGlu--His--Trp--Ser--Tyr-- D-Trp--Leu--Arg--Pro--EA**]?
Answer: LH ng/ml Serum ± SEM ± 15 min (21 day old female rats; Table VII, dosage 100 mg/rat sc (so in the source), ± 15 min): 59 ± 10 ng/mL; LH ng/ml Serum ± SEM ± 60 min (21 day old female rats; Table VII, dosage 100 mg/rat sc (so in the source), ± 60 min): 228 ± 41 ng/mL; +2 hrs LH ± SEM ng/ml serum (21 day old female rats; 150 ng sc): 184 ± 29 ng/mL; FSH ± SEM ng/ml serum (+2 hrs) (21 day old female rats; 150 ng sc): 2260 ± 294 ng/mL; +3 hrs LH ± SEM ng/ml serum (21 day old female rats; 150 ng sc): 103 ± 9 ng/mL
